From patent publication US10512656B2, “Compositions and methods for the treatment of lysosomal storage disorders and disorders characterized by lysosomal dysfunction” (Baylor College of Medicine, priority 2016, dated 2019)

How the values were obtained:
[1] = system: TFEB; assay: Serum re-stimulation of serum-starved Tsc2-/- cells, TFEB localization; format: cell-based, mouse; details: preincubation with MK2206
Procedure: FIG. 15. Serum stimulation modulates subcellular localization of TFEB by regulating Akt activity. (a) WT and Tsc2^−/− cells were serum starved (16 h), treated with MK2206 in the last two hr of starvation where indicated, and stimulated with dialyzed serum for the last 30 min when indicated. Cell lysates were probed with antibodies as indicated. (b) WT and Tsc2^−/− cells were transiently transfected with TFEB-Flag and treated as in (a) and analyzed by immunofluorescence confocal microscopy. Scale bar is 60 μm.

[2] = system: MITF; assay: MITF nuclear translocation in HeLa cells; format: cell-based, human; details: HeLa cells transfected with MITF-3×Flag
From the text: FIG. 23. Pharmacological inhibition of AKT induces nuclear translocation of TFE3 and MITF. HeLa cells were transiently transfected with TFE3-3×Flag (a) and MITF-3×Flag (b) and analyzed by confocal microscopy. Scale bar is 10 μm.

[3] = system: Cln3^Δex7-8 mice; assay: Life span assessment, oral trehalose; format: in vivo, mouse
Procedure: Cln3^Δex7-8 mice (stock no. 004685; Cln3^tm1.1Mem/J; CD-1 background)^32 were obtained from the Jackson Laboratory. Control (CD-1) and Cln3^Δex7-8 mice were housed 3-4 per cage in a room with a 12-h light/12-h dark cycle. Food and water were provided ad libitum. All mice used in this study were analyzed at 8 and 12 months of age and were littermates produced by crossing heterozygous Cln3^Δex7-8 mice. Only males were used for this analysis. Investigators were blinded when analyzing the data, and no randomization was necessary. No data were excluded from this study.
Trehalose (Swanson) was dissolved in drinking water to a final concentration of 2% and changed twice a week. Trehalose-containing water was given to Cln3^Δex7-8 and WT mice by spontaneous oral administration starting at 21 days of age and continuing until the day the mice died naturally (life span assessment) or were sacrificed for other studies.

[4] = system: Cln3^Δex7-8 mice; assay: Microglial activation, CD68 immunohistochemistry; format: in vivo, mouse
Procedure: Brains were subsequently removed and postfixed overnight. Before sectioning, the brains were cryoprotected in a solution containing 30% sucrose in Tris-buffered saline (TBS: 50 mM Tris, pH 7.6). Consecutive […] floating coronal sections were collected in 96-well plates. Series of sections were then stained with primary antisera against CD68 or GFAP, followed by either rabbit anti-rat (VectorLab) and swine anti-rabbit (DAKO) secondary antibodies, and immunoreactivity detected with Vectastain ABC (avidin-biotin) kit (Vector) and diaminobenzidine as a chromogen.
Thirty non-overlapping images were captured, on three consecutive sections, through each region of interest. All RGB images were captured via a live video camera (JVC, 3CCD, KY-F55B), mounted onto a Zeiss Axioplan microscope using a ×40 objective and saved as JPEGs. All parameters including lamp intensity, video camera set-up and calibration were maintained constant throughout image capturing. Images were subsequently analysed using ImageJ analysis software (NIH), using an appropriate threshold that selected the foreground immunoreactivity above background. This threshold was then applied as a constant to all subsequent images analysed per batch of animals and reagent used to determine the specific area of immunoreactivity for each antigen in each region. This analysis was performed blind to genotype. […]

[5] = biological target: T1, mTORC1 (Homo sapiens, UniProt P42345); assay: Immunoblot of mTORC1 substrates in HeLa cells; format: cell-based; details: trehalose 24 h or 48 h
T1 construct: endogenous in cells; host or cells: HeLa
Procedure: FIG. 8. […] HeLa cells were treated with trehalose for 24 h or 48 h, or with rapamycin (600 nM, 16 h) or Torin1 (300 nM, 2 h) as controls for mTORC1 inhibition. […] GAPDH was used as a loading control.
Brain tissue and cultured cells were collected and lysed in RIPA buffer (50 mM Tris-HCl, ph 7.4, 1% NP40, 0.5% Na-deoxycholate, 0.1% SDS, 150 mM NaCl, 2 mM EDTA and 50 mM NaF) including a cocktail of protease (Roche) and phosphatase (SIGMA) inhibitors. Protein concentrations were measured with the bicinchoninic acid protein assay kit (Pierce, Rockford, Ill.), using bovine serum albumin as standard. Lysates were separated via SDS-polyacrylamide gel electrophoresis (PAGE) and then transferred to nitrocellulose membranes. Blots were incubated in blocking buffer (5%, w/v, dried skimmed milk in Tris-buffered saline, pH 7.4 and 0.2% Tween 20, TBST) followed by overnight incubation with appropriate antibodies diluted in blocking buffer (5% dry milk). Western blot images were acquired by LAS 4000 (GE Healthcare) and quantified using ImageJ. Images have been cropped for presentation.

[6] = system: CLEAR genes; assay: Real-time qPCR of CLEAR genes in control and JNCL fibroblasts; format: cell-based, human; details: treated versus untreated
Procedure: Control (Coriell Institute, USA) and JNCL fibroblasts (Gaslini Institute, Italy) were grown in DMEM (1:1, HyClone) supplemented with 10% heat-inactivated fetal bovine serum (FBS, Atlanta Biologicals), 2 mM L-glutamine, 100 U/ml penicillin and […] streptomycin (Invitrogen). HeLa cells were incubated for 2 h with LY294002 ([…], Cell Signaling), Torin 1 (300 nM, Cayman Chemical) or for 24 h with trehalose (100 mM, Sigma), rapamycin (300 nM, Sigma), MK2206 (1 μM, Selleckchem), U0126 ([…], Tocris) and dialyzed serum (GE Healthcare Life Sciences) for 30 min.
Total RNA was extracted from the control and JNCL fibroblasts and from WT and Cln3^Δex7-8 cortical neuron cultures using the RNEasy kit (Qiagen) according to the manufacturer's instructions. Half of the mouse brain was processed for the RNA extraction and one microgram was used for complementary DNA synthesis by QuantiTect Reverse Transcription kit (Qiagen). The primers for PCR with reverse transcription reactions are listed in Table St Quantitative real-time PCR was performed by using iQ SYBR Green Supermix on the CFX96 Touch Real-Time Detection System (Bio-Rad Laboratories). […] Relative gene expression was determined using the ΔΔCT method, normalizing to GAPDH (for human genes) and cyclophilin (for mouse genes). […]

[7] = humans, oral; cited from earlier work

Row | SMILES | TFEB nucleus-to-cytosol translocation on serum re-stimulation [1] | MITF nuclear translocation [2] | median survival ([3]; Cln3^Δex7-8 mice, 2% trehalose in drinking water from 21 days of age, untreated 454 days) | maximum life span ([3]; Cln3^Δex7-8 mice, oral trehalose, untreated 544 days) | increase of maximum life span ([3]; treated vs untreated Cln3^Δex7-8 mice) | increase of median survival ([3]; treated vs untreated Cln3^Δex7-8 mice, log-rank P=0.00566) | microglial activation (CD68) ([4]; S1BF region, 7 months of age) | reduction of microglial activation (CD68) ([4]; VPM/VPL region, 12 months of age) | phosphorylation state of mTORC1 substrates [5] | expression of CLEAR genes [6] | ingested trehalose absorbed into the blood stream [7]
1 | Cl.NC1(c2ccc(-c3nc4ccn5c(=O)[nH]nc5c4cc3-c3ccccc3)cc2)CCC1 [MK2206, 8-[4-(1-aminocyclobutyl)phenyl]-9-phenyl-1,2,4-triazolo[3,4-f][1,6]naphthyridin-3(2H)-one] | prevented | promoted nuclear translocation of these two factors |  |  |  |  |  |  |  |  | 
2 | OC[C@H]1O[C@H](O[C@H]2O[C@H](CO)[C@@H](O)[C@H](O)[C@H]2O)[C@H](O)[C@@H](O)[C@@H]1O [trehalose, a-D-glucopyranosyl a-D-glucopyranoside] |  |  | 522 days | 699 days | 28% | 15% | significantly rescued | 48% | no changes in their phosphorylation state | increased expression of tested CLEAR genes | Less than 0.5%
